Results as given in ChEMBL document CHEMBL1201862, “PubChem BioAssay data set” (2004).
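The compound was tested at five concentrations on cells cultured in 96-well plates, with a 48-hour exposure period. At the GI50, growth is halved.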 The source made the active and inactive calls. Rule as the data show it: active = GI50 up to about 1.1 µM and inactive = higher.

How the values were obtained:
Assay in all cases: inhibition of tumour cell growth, NCI panel, 48 h
HL-60 = system: HL-60
A498 = system: A498
SN12C = system: SN12C
MOLT-4 = system: MOLT-4
A549 = system: A549
M14 = system: M14
IGROV-1 = system: IGROV-1
SK-MEL-2 = system: SK-MEL-2
UACC-257 = system: UACC-257
OVCAR-5 = system: OVCAR-5
NCI-H460 = system: NCI-H460
CCRF-CEM = system: CCRF-CEM
SK-MEL-28 = system: SK-MEL-28
NCI-H23 = system: NCI-H23
OVCAR-4 = system: OVCAR-4

| SMILES | GI50 (HL-60) | GI50 (A498) | GI50 (SN12C) | GI50 (MOLT-4) | GI50 (A549) | GI50 (M14) | GI50 (IGROV-1) | GI50 (SK-MEL-2) | GI50 (UACC-257) | GI50 (OVCAR-5) | GI50 (NCI-H460) | GI50 (CCRF-CEM) | GI50 (SK-MEL-28) | GI50 (NCI-H23) | GI50 (OVCAR-4) |
| --- | --- | --- | --- | --- | --- | --- | --- | --- | --- | --- | --- | --- | --- | --- | --- |
| CCCN1CC=CCC1 | > 100 µM (inactive) | > 100 µM (inactive) | > 100 µM (inactive) | > 100 µM (inactive) | > 100 µM (inactive) | > 100 µM (inactive) | > 100 µM (inactive) | > 100 µM (inactive) | > 100 µM (inactive) | > 100 µM (inactive) | > 100 µM (inactive) | 2.09 µM (inactive) | > 100 µM (inactive) | > 100 µM (inactive) | – |
| COC(=O)C(=O)C(C(C)=O)C(=O)NCc1ccccc1 (centres undefined) | > 100 µM (inactive) | > 100 µM (inactive) | > 100 µM (inactive) | > 100 µM (inactive) | > 100 µM (inactive) | > 100 µM (inactive) | > 100 µM (inactive) | > 100 µM (inactive) | > 100 µM (inactive) | > 100 µM (inactive) | > 100 µM (inactive) | 83.2 µM (inactive) | > 100 µM (inactive) | > 100 µM (inactive) | > 100 µM (inactive) |
| CCC1CN2CCc3c([nH]c4ccccc34)C2C[C@@H]1CC(=O)N(C)C (some centres undefined) | > 100 µM (inactive) | > 100 µM (inactive) | > 100 µM (inactive) | > 100 µM (inactive) | > 100 µM (inactive) | > 100 µM (inactive) | > 100 µM (inactive) | > 100 µM (inactive) | > 100 µM (inactive) | > 100 µM (inactive) | > 100 µM (inactive) | > 100 µM (inactive) | > 100 µM (inactive) | > 100 µM (inactive) | > 100 µM (inactive) |
| O=C(O)CNS(=O)(=O)c1ccc(NCc2ccccc2)cc1 | – | – | > 100 µM (inactive) | > 100 µM (inactive) | > 100 µM (inactive) | > 100 µM (inactive) | > 100 µM (inactive) | > 100 µM (inactive) | > 100 µM (inactive) | > 100 µM (inactive) | > 100 µM (inactive) | > 100 µM (inactive) | > 100 µM (inactive) | > 100 µM (inactive) | > 100 µM (inactive) |
| CCOc1ccc2c(c1)[n+]([O-])c(S(=O)(=O)c1ccc(C)cc1)c(N)[n+]2[O-] | > 100 µM (inactive) | > 100 µM (inactive) | – | > 100 µM (inactive) | > 100 µM (inactive) | > 100 µM (inactive) | > 100 µM (inactive) | > 100 µM (inactive) | > 100 µM (inactive) | > 100 µM (inactive) | > 100 µM (inactive) | > 100 µM (inactive) | > 100 µM (inactive) | > 100 µM (inactive) | > 100 µM (inactive) |
| Cc1cc(N(CCC#N)CCC#N)ccc1/C=C1N=C(/C=C/c2ccccc2)N(c2ccc(S(N)(=O)=O)cc2)C\1=O | > 100 µM (inactive) | > 100 µM (inactive) | > 100 µM (inactive) | > 100 µM (inactive) | > 100 µM (inactive) | > 100 µM (inactive) | > 100 µM (inactive) | > 100 µM (inactive) | > 100 µM (inactive) | > 100 µM (inactive) | > 100 µM (inactive) | > 100 µM (inactive) | > 100 µM (inactive) | > 100 µM (inactive) | > 100 µM (inactive) |
| Cc1cc(Cl)ccc1NC(=O)C(=O)Cc1occc(=O)c1O | > 100 µM (inactive) | > 100 µM (inactive) | > 100 µM (inactive) | > 100 µM (inactive) | > 100 µM (inactive) | > 100 µM (inactive) | > 100 µM (inactive) | > 100 µM (inactive) | > 100 µM (inactive) | > 100 µM (inactive) | > 100 µM (inactive) | > 100 µM (inactive) | > 100 µM (inactive) | > 100 µM (inactive) | > 100 µM (inactive) |
| BrC1(Br)C2/C=C\CCCCC21 (centres undefined) | > 100 µM (inactive) | > 100 µM (inactive) | > 100 µM (inactive) | > 100 µM (inactive) | > 100 µM (inactive) | – | > 100 µM (inactive) | > 100 µM (inactive) | > 100 µM (inactive) | > 100 µM (inactive) | > 100 µM (inactive) | > 100 µM (inactive) | > 100 µM (inactive) | > 100 µM (inactive) | > 100 µM (inactive) |
| COc1ccc2nc(-c3ccc(OCc4ccccc4)cc3)ccc2c1 | > 100 µM (inactive) | – | > 100 µM (inactive) | > 100 µM (inactive) | > 100 µM (inactive) | > 100 µM (inactive) | > 100 µM (inactive) | – | > 100 µM (inactive) | > 100 µM (inactive) | > 100 µM (inactive) | > 100 µM (inactive) | > 100 µM (inactive) | > 100 µM (inactive) | > 100 µM (inactive) |
| Oc1cc(-c2ccccn2)nc2cccc(F)c12 | > 100 µM (inactive) | – | > 100 µM (inactive) | > 100 µM (inactive) | > 100 µM (inactive) | > 100 µM (inactive) | > 100 µM (inactive) | – | > 100 µM (inactive) | > 100 µM (inactive) | > 100 µM (inactive) | > 100 µM (inactive) | 0.644 µM (active) | > 100 µM (inactive) | > 100 µM (inactive) |
| O=C(Cc1ccccc1)N/N=C(\C1=Nc2ccc([N+](=O)[O-])cc2NC1O)C(O)c1ccc([N+](=O)[O-])cc1 (centres undefined) | 19.9 µM (inactive) | > 100 µM (inactive) | > 100 µM (inactive) | – | > 100 µM (inactive) | 30.8 µM (inactive) | > 100 µM (inactive) | > 100 µM (inactive) | > 100 µM (inactive) | > 100 µM (inactive) | > 100 µM (inactive) | 13.8 µM (inactive) | – | > 100 µM (inactive) | > 10 µM (inactive) |
| Cc1c(C(=O)/C=C/c2ccco2)[n+]([O-])c2ccccc2[n+]1[O-] | 42 µM (inactive) | > 100 µM (inactive) | > 100 µM (inactive) | 39.6 µM (inactive) | > 100 µM (inactive) | > 100 µM (inactive) | > 100 µM (inactive) | – | > 100 µM (inactive) | > 100 µM (inactive) | > 100 µM (inactive) | 36.1 µM (inactive) | > 100 µM (inactive) | > 100 µM (inactive) | – |
| CC1C2=CC=C(O2)C(C)(C)C2=CC=C(O2)C(C)(C)C2=CC=C(O2)C(C)(C)C2=CC=C1O2 | > 100 µM (inactive) | > 100 µM (inactive) | > 100 µM (inactive) | > 100 µM (inactive) | > 100 µM (inactive) | – | > 100 µM (inactive) | > 100 µM (inactive) | > 100 µM (inactive) | > 100 µM (inactive) | > 100 µM (inactive) | > 100 µM (inactive) | > 100 µM (inactive) | > 100 µM (inactive) | > 100 µM (inactive) |
| COc1ccc(C(=O)Cc2c(C(=O)c3ccccc3)c3ccccc3n2C(=O)c2ccccc2)cc1 | 38.3 µM (inactive) | – | – | 25.6 µM (inactive) | 35.7 µM (inactive) | > 100 µM (inactive) | > 100 µM (inactive) | > 100 µM (inactive) | > 100 µM (inactive) | > 100 µM (inactive) | 26.4 µM (inactive) | 46.6 µM (inactive) | > 100 µM (inactive) | 50.2 µM (inactive) | 32.2 µM (inactive) |
